Key:
[1] = Evaluation of conversion rate to active form in buffer solution (Experimental Example 1); format: physicochemical
Method in brief: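 Prodrugs were held at 25 umol/L and 37° C in 50 mM citrate (pH 5.0, 5.5) or 50 mM phosphate (pH 6.0–7.4) buffer. Parent remaining and Alvocidib formed were quantified by HPLC at 0, 0.5, 1, 2 and 3 hours.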

[2] = Evaluation of conversion rate to active form in human plasma (Experimental Example 3); format: in vitro ADME; settings: human, 0.2 μmol/L
Procedure: (§1) For Example 1, Example 2, Example 3, Example 4, Example 5, Example 6, Comparative Example 3, Comparative Example 4, Comparative Example 6, Comparative Example 7, Comparative Example 8, Comparative Example 9, Comparative Example 10 and Comparative Example 12, the attrition rate of the test compound and the conversion rate of the test compound to Alvocidib in human plasma and BALB/c mouse plasma were calculated by the following method.
(§2) The test compound was added to human plasma or BALB/c mouse plasma at a concentration of 0.2 μmol/L, and incubated at 37° C. The peak areas of the test compound and Alvocidib in the sample were determined by LC-MS/MS after 0, 30 and 60 minutes for Example 1, Example 2, Example 3, Example 4, Example 5 and Example 6, and after 0, 60 and 120 minutes for Comparative Example 3, Comparative Example 4, Comparative Example 6, Comparative Example 7, Comparative Example 8, Comparative Example 9, Comparative Example 10 and Comparative Example 12, and the attrition rate of the test compound and the conversion rate of the test compound to Alvocidib were calculated by the following formula. Attrition rate of test compound (%):(peak area of test compound in sample/peak area of test compound in sample after 0 minute)×100 Conversion rate to Alvocidib (%):(peak area of Alvocidib in sample/peak area of Alvocidib in reaction solution containing 0.2 μmol/L Alvocidib)×100
(§3) The measurement conditions for LC-MS/MS are as follows. • HPLC: Prominence system (Shimadzu Corporation) • MS/MS: • Example 1, Example 2, Example 3, Example 4, Example 5, Example 6, Comparative Example 8 (mouse), Comparative Example 10 (mouse) and Comparative Example 12 (mouse) • QTRAP5500 (SCIEX) • Comparative Example 6, Comparative Example 7, Comparative Example 8 (human), Comparative Example 9, Comparative Example 10 (human) and Comparative Example 12 (human) • 4000 QTRAP (SCIEX) • column: • other than Example 3 and Example 4 • Cadenza CD-C18, 3 μm, 50×2 mm (Imtakt Corporation) • Example 3 and Example 4 • Kinetex C8, 2.6 μm, 50×2.1 mm (Phenomenex) • column temperature: 40° C. • mobile phase: • A: water containing 0.1% formic acid • B: acetonitrile containing 0.1% formic acid • A/B (min): • Example 1, Example 2, Example 5, Example 6, Comparative Example 8 (mouse), Comparative Example 10 (mouse) and Comparative Example 12 (mouse) • 90/10(0)→40/60(5.0)→10/90(5.1)→10/90(6.5)→90/10(6.6)→90/10(8.0) • Example 3 and Example 4 • 86/14(0)→86/14(3.5)→10/90(5.5)→10/90(6.5)→86/14(6.6)→86/14(9.5) • Comparative Example 6, Comparative Example 7, Comparative Example 8 (human), Comparative Example 9, Comparative Example 10 (human) and Comparative Example 12 (human) • 90/10(0)→10/90(2.5)→10/90(3.5)→90/10(3.6)→90/10(5.0) • flow rate: 0.4 mL/min • detection: ESI (positive mode) • injection: 1 to 5 μL

[3] = Evaluation of conversion rate to active form in BALB/c mouse plasma (Experimental Example 3); format: in vitro ADME; settings: BALB/c, mouse, 0.2 μmol/L
Procedure: as §1, §2, §3

CCOC(=O)O[C@@H]1CN(C)CC[C@@H]1c1c(O)cc(O)c2c(=O)cc(-c3ccccc3Cl)oc12 [Comparative Example 3, reference compound]
Production rate of Alvocidib ([1]; pH5.0, 0 hr): 1.2% | Residual rate ([1]; pH5.0, 0 hr): 90.6% | Production rate of Alvocidib ([1]; pH5.0, 0.5 hr): 1.2% | Residual rate ([1]; pH5.0, 0.5 hr): 90.6% | Production rate of Alvocidib ([1]; pH5.0, 1 hr): 1.2% | Residual rate ([1]; pH5.0, 1 hr): 90.7% | Production rate of Alvocidib ([1]; pH5.0, 2 hr): 1.3% | Residual rate ([1]; pH5.0, 2 hr): 90.2% | Production rate of Alvocidib ([1]; pH5.0, 3 hr): 1.2% | Residual rate ([1]; pH5.0, 3 hr): 90.6% | Production rate of Alvocidib ([1]; pH5.5, 0 hr): 1.1% | Residual rate ([1]; pH5.5, 0 hr): 90.9% | Production rate of Alvocidib ([1]; pH5.5, 0.5 hr): 1.1% | Residual rate ([1]; pH5.5, 0.5 hr): 90.9% | Production rate of Alvocidib ([1]; pH5.5, 1 hr): 1.2% | Residual rate ([1]; pH5.5, 1 hr): 90.6% | Production rate of Alvocidib ([1]; pH5.5, 2 hr): 1.2% | Residual rate ([1]; pH5.5, 2 hr): 89.9% | Production rate of Alvocidib ([1]; pH5.5, 3 hr): 1.1% | Residual rate ([1]; pH5.5, 3 hr): 90.7% | Production rate of Alvocidib ([1]; pH6.0, 0 hr): 1.1% | Residual rate ([1]; pH6.0, 0 hr): 91.0% | Production rate of Alvocidib ([1]; pH6.0, 0.5 hr): 1.2% | Residual rate ([1]; pH6.0, 0.5 hr): 90.8% | Production rate of Alvocidib ([1]; pH6.0, 1 hr): 1.1% | Residual rate ([1]; pH6.0, 1 hr): 90.9% | Production rate of Alvocidib ([1]; pH6.0, 2 hr): 1.2% | Residual rate ([1]; pH6.0, 2 hr): 90.0% | Production rate of Alvocidib ([1]; pH6.0, 3 hr): 1.2% | Residual rate ([1]; pH6.0, 3 hr): 90.9% | Production rate of Alvocidib ([1]; pH6.5, 0 hr): 1.1% | Residual rate ([1]; pH6.5, 0 hr): 90.8% | Production rate of Alvocidib ([1]; pH6.5, 0.5 hr): 1.1% | Residual rate ([1]; pH6.5, 0.5 hr): 90.9% | Production rate of Alvocidib ([1]; pH6.5, 1 hr): 1.2% | Residual rate ([1]; pH6.5, 1 hr): 90.8% | Production rate of Alvocidib ([1]; pH6.5, 2 hr): 1.3% | Residual rate ([1]; pH6.5, 2 hr): 89.9% | Production rate of Alvocidib ([1]; pH6.5, 3 hr): 1.2% | Residual rate ([1]; pH6.5, 3 hr): 90.8% | Production rate of Alvocidib ([1]; pH7.0, 0 hr): 1.1% | Residual rate ([1]; pH7.0, 0 hr): 91.0% | Production rate of Alvocidib ([1]; pH7.0, 0.5 hr): 1.2% | Residual rate ([1]; pH7.0, 0.5 hr): 91.0% | Production rate of Alvocidib ([1]; pH7.0, 1 hr): 1.2% | Residual rate ([1]; pH7.0, 1 hr): 90.9% | Production rate of Alvocidib ([1]; pH7.0, 2 hr): 1.4% | Residual rate ([1]; pH7.0, 2 hr): 89.8% | Production rate of Alvocidib ([1]; pH7.0, 3 hr): 1.3% | Residual rate ([1]; pH7.0, 3 hr): 90.8% | Production rate of Alvocidib ([1]; pH7.4, 0 hr): 1.1% | Residual rate ([1]; pH7.4, 0 hr): 91.0% | Conversion to Alvocidib at pH 7.4 ([1]; pH 7.4, 37° C., up to 3 hours): slowly converted to Alvocidib | Production rate of Alvocidib ([1]; pH7.4, 0.5 hr): 1.2% | Residual rate ([1]; pH7.4, 0.5 hr): 91.0% | Production rate of Alvocidib ([1]; pH7.4, 1 hr): 1.2% | Residual rate ([1]; pH7.4, 1 hr): 91.0% | Production rate of Alvocidib ([1]; pH7.4, 2 hr): 1.4% | Residual rate ([1]; pH7.4, 2 hr): 90.1% | Production rate of Alvocidib ([1]; pH7.4, 3 hr): 1.3% | Residual rate ([1]; pH7.4, 3 hr): 90.8% | Production rate (%) of Alvocidib ([2]; 0 min): 1% | Residual rate (%) of test compound ([2]; 0 min): 100% | Production rate (%) of Alvocidib ([2]; 60 min): 1% | Residual rate (%) of test compound ([2]; 60 min): 78% | Production rate (%) of Alvocidib ([2]; 120 min): 2% | Residual rate (%) of test compound ([2]; 120 min): 101% | Production rate (%) of Alvocidib ([3]; 0 min): 1% | Residual rate (%) of test compound ([3]; 0 min): 100% | Production rate (%) of Alvocidib ([3]; 60 min): 7% | Residual rate (%) of test compound ([3]; 60 min): 90% | Production rate (%) of Alvocidib ([3]; 120 min): 13% | Residual rate (%) of test compound ([3]; 120 min): 78%

— patent US12617779B2, “Self degradation-type CDK9 inhibitor prodrug and liposome encapsulating same” (Sumitomo Pharma Co., Ltd., priority 2021, dated 2026)
